Measurements taken from patent publication US20240288345A1, “FLUORESCENT STAINING METHOD” (OSAKA UNIVERSITY, priority 2022, published 2024).

What was measured:
[1] = test system: neutrophil in colonic tissue analyte; experiment: Whole-mount 3D staining of ulcerative colitis colonic tissue analyte (Test Example C); design: species or system human; settings: cleared
Protocol: (§1) A formaldehyde-fixed tissue specimen was washed with PBS, and was subsequently immersed in a 50% (v/v) CUBIC-L reagent (mixture containing water and the CUBIC-L reagent at 1:1) overnight. Further, the specimen was immersed in the CUBIC-L reagent at 37° C. for 5 days or 6 days while being gently shaken. Next, each of those specimens was washed with PBS, was immersed in 30% (w/v) of sucrose in the PBS, and was frozen in O.C.T. COMPOUND at −80° C. overnight. Next, the frozen specimen was thawed, was washed with PBS, and was immersed in a 0.5% solution of periodic acid (HIO;) (86171, MUTO PURE CHEMICALS CO., LTD.) at room temperature for 30 minutes. […] A cleared tissue specimen thus obtained was subjected to 3D imaging with a confocal fluorescence microscope or a light-sheet fluorescence microscope. A wavelength of 488 nm was applied as the excitation wavelength of each of FAM hydrazide, Compound 1, Alexa Fluor 488 hydrazide, BDP FL hydrazide, and fluorescein, and the fluorescence detection wavelength range of each of these materials was from 490 nm to 562 nm. […]

[2] = test system: human colonic mucosal tissue; experiment: Clearing and whole-mount 3D fluorescent staining of human colonic mucosal tissue (Test Example B)
Protocol: CUBIC-L and CUBIC-R+reagents (T3740 and T3741, Tokyo Chemical Industry Co., Ltd.) were used in tissue clearing. Atissue removal procedure is simply described below.
A formaldehyde-fixed tissue specimen was washed with PBS, and was subsequently immersed in a 50% (v/v) CUBIC-L reagent (mixture containing water and the CUBIC-L reagent at 1:1) overnight. Further, the specimen was immersed in the CUBIC-L reagent at 37° C. for 5 days or 6 days while being gently shaken. Next, each of those specimens was washed with PBS, was immersed in 30% (w/v) of sucrose in the PBS, and was frozen in O.C.T. COMPOUND at −80° C. overnight. […] After having been washed with PBS, the specimen was stained by being gently shaken at room temperature for 2 days or 3 days together with FAM hydrazide, 5-isomer (50 μM), Compound 1 (50 μM), Alexa Fluor 488 hydrazide (50 µM), BDP FL hydrazide ([…]), or fluorescein (50 µM) in PBS containing 0.5% (v/v) of Triton X-100 (12967, Nacalai Tesque, Inc.). When nuclear counterstaining was performed, propidium iodide (PI) (10 μg/mb, P21493, Life Technologies Corporation) or RedDot-2 (1:100, 40061-T, Biotium, Inc.) was also added to the staining solution. After the staining step, the specimen was washed with PBS, and was immersed in a 50% (v/v) CUBIC-R+reagent (mixture containing water and the CUBIC-R+reagent at 1:1) overnight. Further, the specimen was immersed in the CUBIC-R+reagent for 1 day or 2 days while being gently shaken. A cleared tissue specimen thus obtained was subjected to 3D imaging with a confocal fluorescence microscope or a light-sheet fluorescence microscope. A wavelength of 488 nm was applied as the excitation wavelength of each of FAM hydrazide, Compound 1, Alexa Fluor 488 hydrazide, BDP FL hydrazide, and fluorescein, and the fluorescence detection wavelength range of each of these materials was from 490 nm to 562 nm.
A 3D image was obtained by using a confocal microscope (Zeiss LSM880 Confocal/Multiphoton, Carl Zeiss AG) or a light-sheet fluorescence microscope (Zeiss Lightsheet 7, Carl Zeiss AG), All pieces of raw image data were reconstructed and analyzed with Imaris software (version 9.2.1, Bitplane Inc.).
A human colonic mucosal tissue after its formalin fixation, which had been excised into a square about 4 mm on a side, was subjected to clearing treatment and to whole-mount 3D tissue staining through use of FAM hydrazide, Alexa Fluor 488 hydrazide, BDP FL hydrazide, or fluorescein as a stain.

[3] = test system: fungal hyphae in a pulmonary aspergillosis tissue; experiment: 3D imaging of fungal hyphae (Test Example H); settings: with RedDot 2 counterstain, confocal microscope
Protocol: as §1

[4] = test system: colonic tissue analyte, crypt structure and neutrophils; experiment: 3D imaging of ulcerative colitis histopathological analyte (Test Example D); design: species or system human; settings: cleared, whole-mount 3D staining
Protocol: as §1

[5] = test system: goblet cell mucus of human colorectal mucosal tissue; experiment: Fluorescent staining of frozen sliced specimen of human colonic mucosa (Test Example A)
Protocol: A tissue to be stained was washed with phosphate buffered saline (PBS), was immersed in 30% (w/v) of sucrose in the PBS, and was frozen in O.C.T. COMPOUND (45833, Sakura Finetek) at −80° ° C. overnight. The frozen tissue was cut into a thickness of 10 μm with a cryostat (CM3050 S, Leica Biosystems). The resultant frozen section was washed with PBS three times, and was subjected to pretreatment with a 0.5% solution of periodic acid (HIOA) (86171, MUTO PURE CHEMICALS CO., LTD.) at room temperature for 30 minutes. The section was washed with PBS three times, and was incubated in FAM hydrazide, 5-isomer((50 µM, 24170, BroadPharm, in this description, sometimes referred to as “FAM hydrazide”), Alexa Fluor 488 hydrazide (50 μM, A10436, ThermoFisher Scientific, Inc.), BDP FL hydrazide (50 μM, 11470, Lumiprobe Corporation), or fluorescein (50 µM, FUJIFILM Wako Pure Chemical Corporation) diluted with PBS at room temperature overnight. After that, the section was washed with PBS and an image thereof was obtained with a confocal microscope.
A section of a human colorectal mucosal tissue sampled from the non-tumor region of a surgical specimen of colorectal cancer was subjected to fluorescent staining through use of FAM hydrazide, Alexa Fluor 488 hydrazide, BDP FL hydrazide, or fluorescein serving as a fluorescent skeleton as a stain.

[6] = test system: human colonic polyp; experiment: 3D imaging of human colonic polyp with light-sheet microscope (Test Example G); settings: with propidium iodide counterstain
Protocol: as §1

Compound: NNC(=O)c1ccc2c(c1)C(=O)OC21c2ccc(O)cc2Oc2cc(O)ccc21 [FAM hydrazide, FAM hydrazide, 5-isomer]
- Stained image of neutrophil in 3D imaging [1]: clear stained image
- 3D imaging signal of cleared tissue ([2]; CUBIC clearing, periodic acid, 50 μM, 2-3 days, excitation 488 nm): clear stereoscopic image
- Staining of goblet cell and basement membrane in crypt of colonic mucosa ([2]; cleared tissue, 3D staining): clearly stained
- Staining of neutrophil in 3D tissue staining ([2]; cleared tissue, confirmed with anti-MPO antibody): clearly stained
- 3D staining signal without oxidation treatment with HIO4 ([2]; no HIO4 oxidation, CUBIC reagent): no positive signal was observed
- Staining property for a sample having a thickness after clearing treatment ([2]; summary of Examples and Test Examples): significantly excellent
- Visualization of structures of fungal hyphae [3]: clearly visualized
- Three-dimensional observation of pathological crypt structure of ulcerative colitis [4]: enabled the three-dimensional observation
- Fluorescent staining signal in goblet cell mucus, sliced section ([5]; 10 μm frozen section, 0.5% periodic acid pretreatment, 50 μM overnight): clear positive image
- Fluorescent staining signal without oxidation treatment with HIO4, sliced section ([5]; no HIO4 oxidation): not obtained
- Observation of surface layer structure of human colonic polyp [6]: able to be observed
